{"source": "patent US20230057359A1", "about": "“NOVEL USE OF STEVIOL” (SUNTORY HOLDINGS LIMITED, priority 2019, published 2023)", "assay_type_in_all_cases": "cell-based", "key": {"HepG2 cells [1]": {"tested_on": "HepG2 cells", "experiment": "Cytotoxicity of steviol to hepatocytes (WST-8 viable cell count)", "settings": "for Relative viable cell count (%): 24 hours, Control=100%", "description": "5×10^5 HepG2 cells (Cat. No. JCRB1054, JCRB) were precultured for 5 days in a T75 flask using a growth medium (DMEM (high glucose, Cat. No. D5796, Sigma-Aldrich Co., LLC) supplemented with 10% FBS (Cat. No. 172012, Sigma-Aldrich Co., LLC) and 1% penicillin-streptomycin (Cat. No. 09367-34, Nacalai Tesque Inc.)) in a CO2 incubator. The cells were detached using 0.25% trypsin-EDTA, seeded at 10,000 cells/100 μL/well to a 96-well plate using the growth medium, and cultured overnight in a CO2 incubator. On the next day, the medium was replaced with 100 μL of a growth medium supplemented with varying concentrations of steviol (0.001, 0.01, 0.1, 1, 10 or 100 μg/mL, dissolved in 0.1% DMSO (final concentration)), and the cells were cultured for 24 hours in a CO2 incubator. A vehicle control composed of a growth medium supplemented with 0.1% DMSO (final concentration) was used as a negative control (Control). Viable cell count measurement was performed by the WST-8 method. Specifically, the medium of each well after culture was replaced with 100 μL of growth medium supplemented with a 1/10 amount of viable cell count measurement reagent SF, and the cells were incubated in a CO2 incubator. 30 minutes later and 90 minutes later, absorbance (450 nm, reference wavelength: 630 nm) was measured using a plate reader (VARIOSKAN FLASH, Thermo Fisher Scientific Inc.), and absorbance difference per 60 minutes was regarded as a relative viable cell count."}, "HepG2 cells [2]": {"tested_on": "HepG2 cells", "experiment": "TG accumulation test in hepatocytes (Adipogenesis Assay Kit, oleic acid)", "settings": "0.2 mM oleic acid, 24 hours, DMSO=100%", "description": "HepG2 cells were precultured using the growth medium in the same manner as in Example 5. The cells were detached using 0.25% trypsin-EDTA, seeded at 30,000 cells/100 μL/well to a 96-well plate using the growth medium, and cultured overnight in a CO2 incubator. On the next day, the medium was replaced with 100 μL of a test medium (DMEM (high glucose) supplemented with 0.2 mM oleic acid (Cat. No. 03008, Sigma-Aldrich), 10% FBS and 1% penicillin-streptomycin) supplemented with varying concentrations of steviol (12.5, 25, 50, 100 or 200 μg/mL, dissolved in 0.1% DMSO (final concentration)). The cells were cultured for 24 hours in a CO2 incubator. A test medium supplemented with 2 mM metformin (Cat. No. M2009, Tokyo Chemical Industry Co., Ltd.) was used as a positive control (Metformin), and a vehicle control composed of a test medium supplemented with 0.1% DMSO (final concentration) was used as a negative control (DMSO). Cells cultured in a test medium containing no oleic acid was used as an untreated control (Untreated). The cells thus cultured were subjected to oil red staining in the same manner as in Example 3, followed by photographing and calculation of a relative fat accumulation level. An intracellular triglyceride (TG) level in cells separately cultured under the same conditions as in the cells employed in the oil red staining was quantified using Adipogenesis Assay Kit (BioVision Inc.) according to the manufacturer's protocol. Absorbance (570 nm) was measured using a plate reader (VARIOSKAN FLASH, Thermo Fisher Scientific Inc.), and a relative TG level was calculated. Significant difference of untreated group vs fat accumulation induction group (negative control group) was tested (two-tailed) by the Student's t test as to the relative fat accumulation level and the relative TG level, and P<0.05 was regarded as having significant difference. Also, significant difference of negative control group vs steviol addition group/positive control group was tested (two-tailed) by the Dunnett test, and P<0.05 was regarded as having significant difference. The results of the fat accumulation test are shown in Table 6 and FIG. 6, and the results of the TG accumulation test are shown in Table 7 and FIG. 7."}, "[3]": {"tested_on": "normal human subcutaneous preadipocytes differentiated into adipocytes", "experiment": "Fat accumulation test in adipocytes (oil red staining)", "settings": "for Relative fat accumulation level (%): 10 days, DMSO=100%", "description": "Normal human subcutaneous preadipocytes were precultured using the growth medium in the same manner as in Example 1. The cells were detached using 0.25% trypsin-EDTA, seeded at 10,000 cells/100 μL/well to a 96-well plate using a growth medium, and cultured overnight in a CO2 incubator. On the next day, the medium was replaced with 100 μL of a differentiation medium supplemented with varying concentrations of steviol (12.5, 25, 50, 100 or 200 μg/mL, dissolved in 0.1% DMSO (final concentration)). The cells were cultured for 10 days in a CO2 incubator to induce their differentiation into adipocytes. On the fourth and seventh days after the differentiation induction, the medium was replaced with a fresh medium (100 μL) having the same composition as above. A differentiation medium supplemented with 25 mM LiCl (Cat. No. SML0559, Sigma-Aldrich Co., LLC) was used as a positive control, and a differentiation medium supplemented with 0.1% DMSO (final concentration) was used as a negative control. Cells cultured in a growth medium were used as an untreated control (Untreated). The cells thus cultured were subjected to oil red staining. Specifically, the cells were washed twice with 100 μL of DPBS (Cat. No. 14190250, Thermo Fisher Scientific Inc.). Then, the cells were fixed (room temperature, 10 min) in 100 μL of a 10% formalin solution (Cat. No. 061-00416, FUJIFILM Wako Pure Chemical Corp.). The cells were washed twice with 100 μL of DPBS, then incubated for 1 minute in 100 μL of 60% 2-propanol (Cat. No. 166-04836, FUJIFILM Wako Pure Chemical Corp.) that replaced the medium, and stained for 15 minutes in 100 μL of an oil red staining solution (Cat. No. 00625, Sigma-Aldrich Co., LLC) that replaced the 2-propanol solution. The cells were washed once with 100 μL of 60% 2-propanol and washed twice with 100 μL of DPBS. Then, cell images were taken in 100 μL of DPBS. After subsequent replacement with 120 μL of 100% 2-propanol, oil red was extracted by incubation for 5 minutes, and 100 μL of the extracts was transferred to each well of a fresh 96-well plate. Absorbance (520 nm) was measured using a plate reader (VARIOSKAN FLASH, Thermo Fisher Scientific Inc.), and a relative fat accumulation level was calculated. Significant difference of differentiation non-induced group vs differentiation induced group (negative control group) was tested (two-tailed), and P<0.05 was regarded as having significant difference. Also, significant difference of negative control group vs steviol addition group/positive control group was tested (two-tailed) by the Dunnett test, and P<0.05 was regarded as having significant difference."}}}
{"molecule": "C=C1C[C@@]23CC[C@H]4[C@@](C)(CCC[C@@]4(C)C(=O)O)[C@@H]2CC[C@]1(O)C3", "note": "[Steviol, steviol]", "values": [{"measurement": "cytotoxicity to hepatocytes (in words)", "setting": "HepG2 cells [1]; 100 μg/mL steviol", "value": "no particular cytotoxicity to be noted was found"}, {"measurement": "Relative viable cell count (%)", "setting": "HepG2 cells [1]; steviol 0.01 μg/mL", "value": 98.8, "unit": "%"}, {"measurement": "Relative viable cell count (%)", "setting": "HepG2 cells [1]; steviol 0.1 μg/mL", "value": 98.4, "unit": "%"}, {"measurement": "Relative viable cell count (%)", "setting": "HepG2 cells [1]; steviol 1 μg/mL", "value": 95.3, "unit": "%"}, {"measurement": "Relative viable cell count (%)", "setting": "HepG2 cells [1]; steviol 10 μg/mL", "value": 95.6, "unit": "%"}, {"measurement": "Relative viable cell count (%)", "setting": "HepG2 cells [1]; steviol 100 μg/mL", "value": 87.7, "unit": "%"}, {"measurement": "Relative TG level (%)", "setting": "HepG2 cells [2]; steviol 12.5 μg/mL", "value": 98.8, "unit": "%"}, {"measurement": "Relative TG level (%)", "setting": "HepG2 cells [2]; steviol 25 μg/mL", "value": 90.0, "unit": "%"}, {"measurement": "Relative TG level (%)", "setting": "HepG2 cells [2]; steviol 50 μg/mL", "value": 93.7, "unit": "%"}, {"measurement": "Relative TG level (%)", "setting": "HepG2 cells [2]; steviol 100 μg/mL", "value": 89.4, "unit": "%"}, {"measurement": "Relative TG level (%)", "setting": "HepG2 cells [2]; steviol 200 μg/mL", "value": 81.4, "unit": "%"}, {"measurement": "fat accumulation in adipocytes (in words)", "setting": "[3]; 12.5 to 200 μg/mL", "value": "suppressed fat accumulation in adipocytes in a concentration-dependent manner"}, {"measurement": "Relative fat accumulation level (%)", "setting": "[3]; steviol 12.5 μg/mL", "value": 98.3, "unit": "%"}, {"measurement": "Relative fat accumulation level (%)", "setting": "[3]; steviol 25 μg/mL", "value": 91.3, "unit": "%"}, {"measurement": "Relative fat accumulation level (%)", "setting": "[3]; steviol 50 μg/mL", "value": 80.7, "unit": "%"}, {"measurement": "Relative fat accumulation level (%)", "setting": "[3]; steviol 100 μg/mL", "value": 70.8, "unit": "%"}, {"measurement": "Relative fat accumulation level (%)", "setting": "[3]; steviol 200 μg/mL", "value": 40.0, "unit": "%"}]}
